# Results taken from ChEMBL document CHEMBL1201862, “PubChem BioAssay data set” (2004).
#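 48-hour exposure; five concentrations; linearly interpolated endpoints. GI50 = concentration required for 50% inhibition of growth.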 Calls of active or inactive are those of the source. Rule as the data show it: active = GI50 up to about 1.1 µM and inactive = higher.
# Key:
# Assay in all cases: DTP human tumour cell line panel, 48 h
# SK-OV-3 = test system: SK-OV-3
# A549 = test system: A549
# 786-0 = test system: 786-0
# NCI-H522 = test system: NCI-H522
# SW-620 = test system: SW-620
# SF-539 = test system: SF-539
# SK-MEL-2 = test system: SK-MEL-2
# K562 = test system: K562
# ACHN = test system: ACHN
# SK-MEL-5 = test system: SK-MEL-5
# SN12C = test system: SN12C
# NCI-H460 = test system: NCI-H460
# Malme-3M = test system: Malme-3M
# UO-31 = test system: UO-31
# NCI-H23 = test system: NCI-H23
# HOP-92 = test system: HOP-92
# LOX IMVI = test system: LOX IMVI
# DU-145 = test system: DU-145
# MDA-MB-231 = test system: MDA-MB-231
# T47D = test system: T47D
Compound,GI50 (SK-OV-3),GI50 (A549),GI50 (786-0),GI50 (NCI-H522),GI50 (SW-620),GI50 (SF-539),GI50 (SK-MEL-2),GI50 (K562),GI50 (ACHN),GI50 (SK-MEL-5),GI50 (SN12C),GI50 (NCI-H460),GI50 (Malme-3M),GI50 (UO-31),GI50 (NCI-H23),GI50 (HOP-92),GI50 (LOX IMVI),GI50 (DU-145),GI50 (MDA-MB-231),GI50 (T47D)
O=C(N/C(=C\c1ccc(Br)cc1)c1nc2ccccc2s1)c1ccccc1,> 100 µM (inactive),61.4 µM (inactive),> 100 µM (inactive),32 µM (inactive),> 100 µM (inactive),88.9 µM (inactive),> 100 µM (inactive),51.4 µM (inactive),76.9 µM (inactive),36 µM (inactive),> 100 µM (inactive),85.1 µM (inactive),> 100 µM (inactive),40.3 µM (inactive),25.5 µM (inactive),38.2 µM (inactive),65.2 µM (inactive),,,
Nc1nc(-c2ccccc2)cc(-c2ccc(OCc3ccccc3)cc2O)n1,,33.4 µM (inactive),40.9 µM (inactive),20.5 µM (inactive),39.4 µM (inactive),26 µM (inactive),32.4 µM (inactive),43 µM (inactive),31.3 µM (inactive),17.5 µM (inactive),76.9 µM (inactive),40.4 µM (inactive),24.2 µM (inactive),38.1 µM (inactive),38.3 µM (inactive),38.7 µM (inactive),33.9 µM (inactive),73.6 µM (inactive),70.3 µM (inactive),
[C-]#[N+]C1(C(=O)OCC)CC1,,> 100 µM (inactive),> 100 µM (inactive),> 100 µM (inactive),> 100 µM (inactive),> 100 µM (inactive),,> 100 µM (inactive),> 100 µM (inactive),> 100 µM (inactive),> 100 µM (inactive),> 100 µM (inactive),> 100 µM (inactive),,> 100 µM (inactive),> 100 µM (inactive),> 100 µM (inactive),> 100 µM (inactive),,> 100 µM (inactive)
ClCCCC1COc2ccccc2O1 (stereo unspecified),8.81 µM (inactive),> 100 µM (inactive),> 100 µM (inactive),> 100 µM (inactive),> 100 µM (inactive),> 100 µM (inactive),,> 100 µM (inactive),> 100 µM (inactive),> 100 µM (inactive),> 100 µM (inactive),> 100 µM (inactive),> 100 µM (inactive),> 100 µM (inactive),> 10 µM (inactive),43.6 µM (inactive),,> 100 µM (inactive),,
COc1nc2c(c(=O)n1C)N=C(c1ccccc1)[C@H](C(CC(=O)c1ccccc1)c1ccccc1)C(c1ccccc1)N2 (stereo partly specified),> 100 µM (inactive),32.3 µM (inactive),76.4 µM (inactive),25.9 µM (inactive),> 100 µM (inactive),> 100 µM (inactive),> 100 µM (inactive),55.5 µM (inactive),50.4 µM (inactive),60.8 µM (inactive),44.7 µM (inactive),,,38.2 µM (inactive),> 100 µM (inactive),> 100 µM (inactive),> 100 µM (inactive),> 100 µM (inactive),16.2 µM (inactive),
CCC1(O)C(=O)OCc2c1cc1n(c2=O)Cc2cc3c(N)cccc3nc2-1 (stereo unspecified) [RS-9-Aminocamptothecin],0.0264 µM (active),0.0354 µM (active),0.0108 µM (active),0.0196 µM (active),0.0281 µM (active),< 0.014 µM (active),0.288 µM (active),0.0309 µM (active),< 0.01 µM (active),0.0255 µM (active),< 0.01 µM (active),< 0.0106 µM (active),0.21 µM (active),< 0.0109 µM (active),< 0.0109 µM (active),0.0349 µM (active),< 0.01 µM (active),< 0.011 µM (active),2.1 µM (inactive),
Cc1ccc(-c2c(C#N)c(-c3ccccc3)n(NS(=O)(=O)c3ccccc3)c(=O)c2C#N)cc1,> 100 µM (inactive),> 100 µM (inactive),> 100 µM (inactive),88.1 µM (inactive),86.3 µM (inactive),87.1 µM (inactive),> 100 µM (inactive),> 100 µM (inactive),> 100 µM (inactive),34.6 µM (inactive),> 100 µM (inactive),61.7 µM (inactive),61.5 µM (inactive),,,61.5 µM (inactive),51.1 µM (inactive),,> 100 µM (inactive),
CCOP(=O)(OCC)C1CC(O)CN1OC(=O)C(C)(C)C (stereo unspecified),> 100 µM (inactive),> 100 µM (inactive),> 100 µM (inactive),,> 100 µM (inactive),,> 100 µM (inactive),> 100 µM (inactive),> 100 µM (inactive),> 100 µM (inactive),> 100 µM (inactive),,> 100 µM (inactive),> 100 µM (inactive),> 100 µM (inactive),,> 100 µM (inactive),> 100 µM (inactive),> 100 µM (inactive),
O=c1/c(=C/c2ccc3c(c2)OCO3)sc2nnc(Cc3ccccc3)n12,> 100 µM (inactive),> 100 µM (inactive),> 100 µM (inactive),92.3 µM (inactive),> 100 µM (inactive),> 100 µM (inactive),> 100 µM (inactive),> 100 µM (inactive),> 100 µM (inactive),> 100 µM (inactive),> 100 µM (inactive),> 100 µM (inactive),> 100 µM (inactive),> 100 µM (inactive),> 100 µM (inactive),> 100 µM (inactive),> 100 µM (inactive),,,
CS(=O)(=O)OCOS(C)(=O)=O,> 100 µM (inactive),> 100 µM (inactive),> 100 µM (inactive),,34.4 µM (inactive),> 100 µM (inactive),> 100 µM (inactive),> 100 µM (inactive),58.9 µM (inactive),> 100 µM (inactive),> 100 µM (inactive),39.8 µM (inactive),,> 100 µM (inactive),69 µM (inactive),> 100 µM (inactive),43.8 µM (inactive),59.6 µM (inactive),> 100 µM (inactive),
Cc1ccc(C(O)c2cnc(C)n2Cc2ccccc2)cc1 (stereo unspecified),> 100 µM (inactive),> 100 µM (inactive),> 100 µM (inactive),> 100 µM (inactive),> 100 µM (inactive),> 100 µM (inactive),> 100 µM (inactive),> 100 µM (inactive),> 100 µM (inactive),79.1 µM (inactive),> 100 µM (inactive),> 100 µM (inactive),> 100 µM (inactive),> 100 µM (inactive),> 100 µM (inactive),> 100 µM (inactive),> 100 µM (inactive),> 100 µM (inactive),> 100 µM (inactive),
NC(=S)N1N=C(c2ccccc2O)CC1c1ccccc1 (stereo unspecified),13.9 µM (inactive),16 µM (inactive),21.1 µM (inactive),3.99 µM (inactive),9.59 µM (inactive),11.8 µM (inactive),5.25 µM (inactive),3.85 µM (inactive),23.3 µM (inactive),10.2 µM (inactive),13.8 µM (inactive),14 µM (inactive),16.1 µM (inactive),19.3 µM (inactive),18.5 µM (inactive),17.1 µM (inactive),16.9 µM (inactive),27 µM (inactive),,17.6 µM (inactive)
COc1cc(CNC2=NCCC2)cc(OC)c1OC,> 100 µM (inactive),> 100 µM (inactive),> 100 µM (inactive),> 100 µM (inactive),> 100 µM (inactive),> 100 µM (inactive),,65.5 µM (inactive),> 100 µM (inactive),> 100 µM (inactive),> 100 µM (inactive),> 100 µM (inactive),> 100 µM (inactive),> 100 µM (inactive),> 100 µM (inactive),> 100 µM (inactive),,> 100 µM (inactive),,
COC(=O)C1(C)C=C(Nc2ccccc2)C(=O)N1c1ccccc1 (stereo unspecified),> 100 µM (inactive),> 100 µM (inactive),> 100 µM (inactive),> 100 µM (inactive),> 100 µM (inactive),> 100 µM (inactive),> 100 µM (inactive),> 100 µM (inactive),> 100 µM (inactive),> 100 µM (inactive),> 100 µM (inactive),> 100 µM (inactive),> 100 µM (inactive),58.3 µM (inactive),> 100 µM (inactive),54.1 µM (inactive),> 100 µM (inactive),,,
Cn1c2ccccc2c2nc3ccccc3c(Cl)c21,35.9 µM (inactive),> 100 µM (inactive),> 100 µM (inactive),> 100 µM (inactive),> 100 µM (inactive),> 100 µM (inactive),> 100 µM (inactive),> 100 µM (inactive),,,> 100 µM (inactive),> 100 µM (inactive),> 100 µM (inactive),,36.2 µM (inactive),> 10 µM (inactive),> 100 µM (inactive),> 100 µM (inactive),> 100 µM (inactive),
COC(=O)[C@H]1CC(=O)C=C2CCCC21 (stereo partly specified),> 100 µM (inactive),> 100 µM (inactive),> 100 µM (inactive),> 100 µM (inactive),> 100 µM (inactive),> 100 µM (inactive),> 100 µM (inactive),> 100 µM (inactive),,> 100 µM (inactive),> 100 µM (inactive),> 100 µM (inactive),> 100 µM (inactive),> 100 µM (inactive),> 100 µM (inactive),> 100 µM (inactive),> 100 µM (inactive),,,
